Measured values taken from publication PMC2233883 (The Journal of General Physiology, 2004).

Biological target: T1, MloK1 (Mesorhizobium japonicum, UniProt Q98GN8)
T1 sequence (Q98GN8 1-355): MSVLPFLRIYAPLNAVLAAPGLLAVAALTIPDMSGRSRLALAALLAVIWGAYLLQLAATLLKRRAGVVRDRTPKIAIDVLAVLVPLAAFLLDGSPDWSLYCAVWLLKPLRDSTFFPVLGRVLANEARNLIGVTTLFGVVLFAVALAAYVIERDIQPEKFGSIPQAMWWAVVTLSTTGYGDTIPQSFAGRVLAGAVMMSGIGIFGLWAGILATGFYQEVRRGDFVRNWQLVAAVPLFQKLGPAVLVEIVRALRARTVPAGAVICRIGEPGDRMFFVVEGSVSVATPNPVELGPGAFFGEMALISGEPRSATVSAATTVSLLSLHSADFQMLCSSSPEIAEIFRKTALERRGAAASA
Test: […]+ uptake into MloK1-reconstituted liposomes, dose-response
Type: biochemical

EC50: 600 nM
Compound: Nc1nc2c(ncn2[C@@H]2O[C@@H]3COP(=O)(O)O[C@H]3[C@H]2O)c(=O)[nH]1 [cGMP]
